Assay results from PubChem BioAssay AID248 (DTP/NCI, 2004).
Values joined by “and” are separate entries in the source; they are usually repeats but may differ in a detail not shown here. Identical values can stand only once. Toxic doses and inconclusive results are not listed. Rule as the data show it: active = T/C of 150% or more; inactive = T/C below 125%.

System: L1210 leukemia ip in BDF1 mice, survival T/C
Assay: NCI In Vivo Anticancer Drug Screen. Data for tumor model L1210 Leukemia (intraperitoneal) in B6D2F1 (BDF1) mice
Conditions: endpoint: mean survival time, higher = longer survival
In short: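 Transplanted-tumor mice were given test agent; controls received vehicle only. Survival readings from the two groups were divided (treated over control).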

[1] = dose: 100.0 mg/kg/injection, schedule: Q01DX001 (ip), vehicle: carboxymethylcellulose (CMC)
[2] = dose: 200.0 mg/kg/injection, schedule: Q01DX001 (ip), vehicle: carboxymethylcellulose (CMC)
[3] = dose: 400.0 mg/kg/injection, schedule: Q01DX001 (ip), vehicle: carboxymethylcellulose (CMC)

Measured: T/C

O=C(/C=C/c1ccccc1)c1ccc2c(c1)OCO2
inactive: dose: 100.0 mg/kg/injection, schedule: Q04DX003 (ip), vehicle: water 98 % of control | dose: 200.0 mg/kg/injection, schedule: Q04DX003 (ip), vehicle: water 96 % of control | dose: 400.0 mg/kg/injection, schedule: Q04DX003 (ip), vehicle: water 94 % of control

CC(C)(C)NC1CCCC1Cl (stereo not drawn)
inactive: dose: 100.0 mg/kg/injection, schedule: Q01DX009 (ip), vehicle: saline with Tween-80 106 % of control | dose: 200.0 mg/kg/injection, schedule: Q01DX009 (ip), vehicle: saline with Tween-80 102 % of control

CCOP(=O)(NC(C)(C)C)OCC
inactive: dose: 50.0 mg/kg/injection, schedule: Q01DX001 (ip), vehicle: carboxymethylcellulose (CMC) 107 % of control | [1] 107 % of control | [2] 105 % of control | [3] 100 % of control

O=C(O)CC(CC(=O)O)c1cccc([N+](=O)[O-])c1
inactive: dose: 100.0 mg/kg/injection, schedule: Q01DX001 (ip), vehicle: acetone 96 % of control | dose: 200.0 mg/kg/injection, schedule: Q01DX001 (ip), vehicle: acetone 98 % of control | dose: 400.0 mg/kg/injection, schedule: Q01DX001 (ip), vehicle: acetone 98 % of control

Cc1c(CN(C)C)cccc1C(=O)Nc1ccccc1
inactive: dose: 50.0 mg/kg/injection, schedule: Q01DX001 (ip), vehicle: saline 115 % of control | dose: 200.0 mg/kg/injection, schedule: Q01DX001 (ip), vehicle: saline 104 % of control

CCCCCCCCCCOC(=O)COc1ccc(C(C)(C)C)cc1
inactive: dose: 100.0 mg/kg/injection, schedule: Q01DX009 (ip), vehicle: saline 92 % of control | dose: 200.0 mg/kg/injection, schedule: Q01DX009 (ip), vehicle: saline 98 % of control

CC(C)COC(=O)c1ccc(NC(=O)Nc2ccc(F)cc2)cc1
inactive: [1] 99 % of control | dose: 100.0 mg/kg/injection, schedule: Q01DX009 (ip), vehicle: carboxymethylcellulose (CMC) 92 % of control and 97 % of control | dose: 100.0 mg/kg/injection, schedule: Q04DX002 (ip), vehicle: carboxymethylcellulose (CMC) 93 % of control and 103 % of control | dose: 100.0 mg/kg/injection, schedule: Q04DX003 (ip), vehicle: carboxymethylcellulose (CMC) 96 % of control | [2] 87 % of control | dose: 200.0 mg/kg/injection, schedule: Q01DX009 (ip), vehicle: carboxymethylcellulose (CMC) 100 % of control and 90 % of control | dose: 200.0 mg/kg/injection, schedule: Q04DX002 (ip), vehicle: carboxymethylcellulose (CMC) 92 % of control and 91 % of control | dose: 200.0 mg/kg/injection, schedule: Q04DX003 (ip), vehicle: carboxymethylcellulose (CMC) 96 % of control | [3] 96 % of control | dose: 400.0 mg/kg/injection, schedule: Q01DX009 (ip), vehicle: carboxymethylcellulose (CMC) 100 % of control | dose: 400.0 mg/kg/injection, schedule: Q04DX002 (ip), vehicle: carboxymethylcellulose (CMC) 100 % of control and 102 % of control | dose: 400.0 mg/kg/injection, schedule: Q04DX003 (ip), vehicle: carboxymethylcellulose (CMC) 95 % of control

CN(N=O)C(=O)Nc1ccc(F)cc1
inactive: dose: 6.25 mg/kg/injection, schedule: Q01DX Z (ip), vehicle: carboxymethylcellulose (CMC) 110 % of control | dose: 12.5 mg/kg/injection, schedule: Q01DX Z (ip), vehicle: carboxymethylcellulose (CMC) 103 % of control | dose: 25.0 mg/kg/injection, schedule: Q01DX Z (ip), vehicle: carboxymethylcellulose (CMC) 111 % of control | dose: 75.0 mg/kg/injection, schedule: Q01DX001 (ip), vehicle: carboxymethylcellulose (CMC) 120 % of control

Cc1cc2ccccc2c2cc3ccccc3cc12
inactive: dose: 100.0 mg/kg/injection, schedule: Q01DX009 (ip), vehicle: Klucel (hydroxypropylcellulose) (HPC) 104 % of control | dose: 100.0 mg/kg/injection, schedule: Q04DX003 (ip), vehicle: other 111 % of control | dose: 200.0 mg/kg/injection, schedule: Q01DX009 (ip), vehicle: Klucel (hydroxypropylcellulose) (HPC) 109 % of control | dose: 200.0 mg/kg/injection, schedule: Q04DX003 (ip), vehicle: other 106 % of control | dose: 400.0 mg/kg/injection, schedule: Q01DX009 (ip), vehicle: Klucel (hydroxypropylcellulose) (HPC) 107 % of control | dose: 400.0 mg/kg/injection, schedule: Q04DX003 (ip), vehicle: other 111 % of control
